Results: patent US4820694A, “Modifications of 3-O-demethylmycinose in macrocin and lactenocin” (priority 1986, dated 1989)
Converted amounts (≈) assume the structure as drawn. Read-outs that look alike come from different tables or passages of the source.

Assays:
[1] = system: Streptococcus pneumoniae Park I; assay: microbe, parasite or virus in culture; assay type: cell-based
Procedure: (§1) The MIC's in Table III were determined by standard agar-dilution assays. The MIC's in Table IV were obtained using conventional brothdilution microtiter tests.

[2] = system: Staphylococcus aureus S13E; assay: microbe, parasite or virus in culture; assay type: cell-based
Procedure: as §1

[3] = system: Mycoplasma gallisepticum 36H; assay: broth-dilution microtiter MIC test; assay type: cell-based
Procedure: as §1

[4] = system: Pasteurella multocida 40G; assay: broth-dilution microtiter MIC test; assay type: cell-based
Procedure: as §1

[5] = system: Streptococcus sp. 19F; assay: broth-dilution microtiter MIC test; assay type: cell-based
Procedure: as §1

[6] = system: Pasteurella multocida 60A; assay: broth-dilution microtiter MIC test; assay type: cell-based
Procedure: as §1

[7] = system: Staphylococcus aureus 19C; assay: broth-dilution microtiter MIC test; assay type: cell-based
Procedure: as §1

[8] = system: Mycoplasma hyorhinis 29E; assay: broth-dilution microtiter MIC test; assay type: cell-based; conditions: broth-dilution microtiter
Procedure: as §1

[9] = system: Mycoplasma gallisepticum 15E; assay: broth-dilution microtiter MIC test; assay type: cell-based
Procedure: as §1

[10] = system: Pasteurella hemolytica 41D; assay: broth-dilution microtiter MIC test; assay type: cell-based
Procedure: as §1

[11] = system: Pasteurella multocida 68C; assay: broth-dilution microtiter MIC test; assay type: cell-based
Procedure: as §1

[12] = system: Pasteurella multocida 22A; assay: broth-dilution microtiter MIC test; assay type: cell-based
Procedure: as §1

[13] = system: Pasteurella multocida 17E; assay: broth-dilution microtiter MIC test; assay type: cell-based
Procedure: as §1

[14] = system: Mycoplasma synoviae 40A; assay: broth-dilution microtiter MIC test; assay type: cell-based; conditions: broth-dilution microtiter
Procedure: as §1

[15] = system: Mycoplasma gallisepticum 29C; assay: broth-dilution microtiter MIC test; assay type: cell-based
Procedure: as §1

[16] = system: Pasteurella hemolytica 22C; assay: broth-dilution microtiter MIC test; assay type: cell-based
Procedure: as §1

[17] = system: Bordetella bronchiseptica; assay: broth-dilution microtiter MIC test; assay type: cell-based; conditions: broth-dilution microtiter
Procedure: as §1

[18] = system: Pasteurella hemolytica 23C; assay: broth-dilution microtiter MIC test; assay type: cell-based
Procedure: as §1

[19] = system: Mycoplasma hyopneumoniae S5972; assay: broth-dilution microtiter MIC test; assay type: cell-based
Procedure: as §1

[20] = system: Staphylococcus epidermidis 222; assay: standard agar-dilution MIC assay; assay type: cell-based; conditions: agar-dilution
Procedure: as §1

[21] = system: Staphylococcus aureus V41; assay: standard agar-dilution MIC assay; assay type: cell-based; conditions: agar-dilution, Penicillin-resistant strain
Procedure: as §1

[22] = system: Staphylococcus aureus X1.1; assay: standard agar-dilution MIC assay; assay type: cell-based
Procedure: as §1

[23] = system: Haemophilus influenzae 76; assay: standard agar-dilution MIC assay; assay type: cell-based; conditions: agar-dilution; Ampicillin-resistant strain
Procedure: as §1

[24] = system: Pseudomonas aeruginosa X239; assay: standard agar-dilution MIC assay; assay type: cell-based; conditions: agar-dilution
Procedure: as §1

[25] = system: Streptococcus pyogenes C203; assay: standard agar-dilution MIC assay; assay type: cell-based
Procedure: as §1

[26] = system: Streptococcus Group D X66; assay: standard agar-dilution MIC assay; assay type: cell-based
Procedure: as §1

[27] = system: Haemophilus influenzae C.L.; assay: standard agar-dilution MIC assay; assay type: cell-based
Procedure: as §1

[28] = system: Staphylococcus aureus X400; assay: standard agar-dilution MIC assay; assay type: cell-based; conditions: agar-dilution, Methicillin-resistant strain
Procedure: as §1

[29] = system: Streptococcus Group D 9960; assay: standard agar-dilution MIC assay; assay type: cell-based
Procedure: as §1

[30] = system: Klebsiella pneumoniae X68; assay: standard agar-dilution MIC assay; assay type: cell-based; conditions: agar-dilution
Procedure: as §1

[31] = system: Staphylococcus epidermidis EPI1; assay: standard agar-dilution MIC assay; assay type: cell-based
Procedure: as §1

[32] = system: Streptococcus pyogenes C203; assay: protection of mice experimentally infected with S. pyogenes C203; assay type: in vivo; conditions: mice, mg/kg × 2, doses given 1 and 4 hours postinfection, read-out: ED50
In short: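 Activity is given as ED50, the mg/kg dose (×2) protecting half of the mice infected with S. pyogenes C203. Compound was dosed 1 and 4 h after infection.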

[33] = system: Escherichia coli EC14; assay: standard agar-dilution MIC assay; assay type: cell-based; conditions: agar-dilution, read-out: MIC
Procedure: as §1

[34] = system: Streptococcus Group D 2041; assay: standard agar-dilution MIC assay; assay type: cell-based; conditions: GROUPD2041
Procedure: as §1

CC[C@H]1OC(=O)C[C@@H](O)[C@H](C)[C@@H](O[C@@H]2O[C@H](C)[C@@H](O)[C@H](N(C)C)[C@H]2O)[C@@H](CC=O)C[C@@H](C)C(=O)/C=C/C(C)=C/[C@@H]1CO[C@@H]1O[C@H](C)[C@@H](OC(=O)COc2ccccc2)[C@@H](O)[C@H]1OC [Compound 34, 4"-O-Phenoxyacetyl-lactenocin]
MIC ([1]; agar-dilution): 0.12 µg/mL (≈ 0.135 µM)
MIC ([2]; agar-dilution): 1 µg/mL (≈ 1.12 µM)
MIC ([3]; broth-dilution microtiter): 12.5 µg/mL (≈ 14 µM)
MIC ([4]; broth-dilution microtiter): 12.5 µg/mL (≈ 14 µM)
MIC ([5]; broth-dilution microtiter): 1.56 µg/mL (≈ 1.75 µM)
MIC ([6]; broth-dilution microtiter, Avian isolate): 12.5 µg/mL (≈ 14 µM)
MIC ([7]; broth-dilution microtiter): 0.78 µg/mL (≈ 0.874 µM)
MIC [8]: 6.25 µg/mL (≈ 7.01 µM)
MIC ([9]; broth-dilution microtiter): 25 µg/mL (≈ 28 µM)
MIC ([10]; broth-dilution microtiter): 25 µg/mL (≈ 28 µM)
MIC ([11]; broth-dilution microtiter): 12.5 µg/mL (≈ 14 µM)
MIC ([12]; broth-dilution microtiter): 12.5 µg/mL (≈ 14 µM)
MIC ([13]; broth-dilution microtiter, Bovine isolate): 6.25 µg/mL (≈ 7.01 µM)
MIC [14]: 0.097 µg/mL (≈ 0.109 µM)
MIC ([15]; broth-dilution microtiter): ≤ 0.048 µg/mL
MIC ([16]; broth-dilution microtiter): 25 µg/mL (≈ 28 µM)
MIC [17]: 50 µg/mL (≈ 56.1 µM)
MIC ([18]; broth-dilution microtiter): 25 µg/mL (≈ 28 µM)
MIC ([19]; broth-dilution microtiter): 0.097 µg/mL (≈ 0.109 µM)
MIC [20]: 0.5 µg/mL (≈ 0.561 µM)
MIC [21]: 1 µg/mL (≈ 1.12 µM)
MIC ([22]; agar-dilution): 1 µg/mL (≈ 1.12 µM)
MIC [23]: 4 µg/mL (≈ 4.48 µM)
MIC [24]: -- (Not active at 128 mcg/mL, the highest level tested)
MIC ([25]; agar-dilution): 0.12 µg/mL (≈ 0.135 µM)
MIC [26]: 1 µg/mL (≈ 1.12 µM)
MIC ([27]; agar-dilution, Ampicillin-sensitive strain): 4 µg/mL (≈ 4.48 µM)
MIC [28]: 1 µg/mL (≈ 1.12 µM)
MIC [29]: 1 µg/mL (≈ 1.12 µM)
MIC [30]: -- (Not active at 128 mcg/mL, the highest level tested)
MIC ([31]; agar-dilution): 1 µg/mL (≈ 1.12 µM)

CCC1OC(=O)CC(O)C(C)C(OC2OC(C)C(O)C(N(C)C)C2O)C(CCOc2ccccc2)CC(C)C(=O)C=CC(C)=CC1COC1OC(C)C=CC1OC (centres unmarked) [Compound 43, 3",4"-Di(dehydrodeoxy)-20-DH-20-O-phenyl-lactenocin]
MIC ([1]; Streptococcus pneumoniae): 0.5 µg/mL (≈ 0.623 µM)
MIC ([2]; Staphylococcus aureus, S13E): 0.25 µg/mL (≈ 0.312 µM)
ED50 ([32]; C203, Oral): 77.7 mg/kg
ED50 ([32]; C203, sc, Subcutaneous): > 10 mg/kg
MIC ([3]; Mycoplasmoides gallisepticum, 36H): 25 µg/mL (≈ 31.2 µM)
MIC ([4]; Pasteurella multocida, 40G): 25 µg/mL (≈ 31.2 µM)
MIC ([5]; Streptococcus, SP.19F): 0.78 µg/mL (≈ 0.973 µM)
MIC ([6]; Pasteurella multocida, 60A): 25 µg/mL (≈ 31.2 µM)
MIC ([7]; Staphylococcus aureus, 19C): 1.56 µg/mL (≈ 1.95 µM)
MIC ([9]; Mycoplasmoides gallisepticum, 15E): 50 µg/mL (≈ 62.3 µM)
MIC ([10]; Pasteurella, 41D): 50 µg/mL (≈ 62.3 µM)
MIC ([11]; Pasteurella multocida, 68C): 12.5 µg/mL (≈ 15.6 µM)
MIC ([12]; Pasteurella multocida, 22A): 50 µg/mL (≈ 62.3 µM)
MIC ([13]; Pasteurella multocida, 17E): 25 µg/mL (≈ 31.2 µM)
MIC ([15]; Mycoplasmoides gallisepticum, 29C): 0.39 µg/mL (≈ 0.486 µM)
MIC ([16]; Pasteurella, 22C): 50 µg/mL (≈ 62.3 µM)
MIC ([17]; Bordetella bronchiseptica, read-out: MIC): > 50 µg/mL
MIC ([18]; Pasteurella, 23C): 50 µg/mL (≈ 62.3 µM)
MIC ([19]; Mesomycoplasma hyopneumoniae, S5972): 6.25 µg/mL (≈ 7.79 µM)
MIC ([20]; Staphylococcus epidermidis, 222, read-out: MIC): 0.12 µg/mL (≈ 0.15 µM)
MIC ([21]; Staphylococcus aureus, V41, read-out: MIC): 0.25 µg/mL (≈ 0.312 µM)
MIC ([22]; Staphylococcus aureus, X1.1): 0.25 µg/mL (≈ 0.312 µM)
MIC ([24]; Pseudomonas aeruginosa, X239, read-out: MIC): > 128 µg/mL
MIC ([25]; Streptococcus pyogenes, C203): 0.25 µg/mL (≈ 0.312 µM)
MIC [33]: > 128 µg/mL
MIC [34]: 1 µg/mL (≈ 1.25 µM)
MIC ([26]; read-out: MIC): 1 µg/mL (≈ 1.25 µM)
MIC ([27]; Haemophilus influenzae): 32 µg/mL (≈ 39.9 µM)
MIC ([28]; Staphylococcus aureus, X400, read-out: MIC): 0.25 µg/mL (≈ 0.312 µM)
MIC ([30]; Klebsiella pneumoniae, X68, read-out: MIC): > 128 µg/mL
MIC ([31]; Staphylococcus epidermidis, EPI1): 0.25 µg/mL (≈ 0.312 µM)
